The test system of the data set is WT hepatocytes. Kind of data set: Confocal BODIPY/TMRE imaging of lipid droplets and mitochondrial potential in hepatocytes. The note with it: 50 μM, 48 hours. It is filed as cell-based, murine. How it is done: CPACC treatment enhances adipose browning and lowers whole body weight. Given the potent mMg^2+ uptake inhibiting properties and low toxicity of CPACC, we hypothesized that CPACC could mimic Mrs2^−/− cellular phenotype. WT hepatocytes isolated from over 12 months old mice were treated with 50 μM CPACC for 48 hours. Control and CPACC treated hepatocytes were stained with BODIPY and TMRE for intracellular tracing using confocal imaging. […] Next it was determined if CPACC treatment affects the mitochondrial oxygen consumption rate. Freshly isolated WT hepatocytes were treated with 5-25 μM concentrations of CPACC for 16 hours before measurement of oxygen consumption rate. […] Since it was observed an enhancement of basal OCR in CPACC treated hepatocytes, the extracellular acidification rate was measured in control and CPACC treated hepatocytes and found it to be higher in the CPACC condition indicating higher glycolytic activity (FIG. 11G). […]
Confocal microscopic examination of cellular lipid localization and maintenance. […] Leica Application Suite X was used to quantify lipid-mitochondrial colocalization using line scan analysis followed by smooth curve fitting. […] The lipid droplet sizes and mitochondrial membrane potential were quantified using both Leica Application Suite X and ImageJ. All data was analyzed using GraphPad Prism v8.

The values that follow come from US20240415878A1, “Compositions and Methods for Modulating Mitochondrial Function” (Board of Regents, The University of Texas System, priority 2021, published 2024).

The structures appear in SMILES notation.

For `[NH2][Co]([NH2])([NH2])([NH2])([NH2])[Cl]` [CPACC, chloropentaammine cobalt (III) chloride], the “effect on mitochondrial function (TMRE)” value is reported as “no negative effect”. In addition, under “hepatocytes from over 12 months old mice”, the lipid droplet size result is “marked reduction of lipid droplet size”.
